Results from US10093653B2, “Vitamin D receptor-coregulator inhibitors” (UWM Research Foundation, Inc., priority 2011, dated 2018).
Values after ≈ are worked out from the molar mass of the structure shown. Values belong to the molecule of their own block, whether it stands above or below them.

Columns and labels:
in vitro = conditions: PAMPA
physchem = conditions: pH 7.4, aqueous buffer, kinetic from dmso stock
VDR in SKOV-3 cells = experiment: VDR expression, western blotting of whole cell lysate; assay type: cell-based; conditions: SKOV-3, 24 hours; 31b 25 and 50 uM, 32b 50 uM
Experimental: Expression of VDR was analyzed by western blotting of whole cell lysate using monoclonal antibody against VDR (Neomarker, Calif. cat no-RT-200PO).

[1] = 12 h, pH 7.4
VDR-SRC2-1 = biological target: T1, VDR-SRC2-1 (Homo sapiens, UniProt P11473, DEL165-215); experiment: VDR-coregulator binding FP, Texas Red-labeled peptide; conditions: 3 h
T1 construct: made in house
T1 sequence (P11473 with tags, fused parts or gaps DEL165-215 limits assumed): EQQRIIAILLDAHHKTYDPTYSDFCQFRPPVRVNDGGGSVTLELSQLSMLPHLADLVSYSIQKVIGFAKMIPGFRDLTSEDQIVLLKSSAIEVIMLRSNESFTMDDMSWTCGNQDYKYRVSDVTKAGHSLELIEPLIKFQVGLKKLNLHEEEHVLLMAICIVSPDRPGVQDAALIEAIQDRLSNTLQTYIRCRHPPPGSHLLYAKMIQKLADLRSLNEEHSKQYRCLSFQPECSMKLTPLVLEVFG

SKOV-3 cells [2] = experiment: Cell cycle analysis by FACS; assay type: cell-based; conditions: SKOV-3, 24 hours
Excerpt: Inducing cell cycle arrest or targeting cell-cycle regulators by small molecule modulators has shown promising outcomes in animal models.

TRPV6 in DU145 cells = experiment: TRPV6 expression, semi-quantitative RT-PCR; assay type: cell-based
SKOV-3 cells [3] = experiment: Reactive oxygen species levels; assay type: cell-based; conditions: SKOV-3, within 24 hours
Excerpt: (§1) Vitamin-d/VDR signaling protects the cancer cells from reactive oxygen species (ROS) induced cellular damages.

SKOV-3 cells [4] = experiment: Mitochondrial transmembrane depolarization potential; assay type: cell-based
OVCAR-8 = experiment: Cytotoxicity, MTS assay; assay type: cell-based; conditions: OVCAR-8, within 48 hours
SKOV-3 cells [5] = experiment: Western blots for cleaved PARP-1 and cleaved caspase-3; assay type: cell-based; conditions: SKOV-3, within 24 hours
SKOV-3 cells [6] = experiment: Western blots for phospho-p38 MAPkinase and phospho SAPK/JNK; assay type: cell-based; conditions: SKOV-3, 25 uM, within 24 hours
Excerpt: as §1

VDR-SRC2 interaction = biological target: T2, VDR-SRC2 interaction (Homo sapiens, UniProt P11473, DEL165-215); experiment: Pull down assay, VDR and SRC2 bearing all three NIDs
T2 sequence (P11473 with tags, fused parts or gaps DEL165-215 limits assumed): T1 sequence (P11473 with tags, fused parts or gaps DEL165-215 limits assumed)

SKOV-3 = experiment: Cytotoxicity, MTS assay; assay type: cell-based; conditions: SKOV-3, within 48 hours
VDR-LBD / SRC2-3 peptide = biological target: T3, VDR-LBD / SRC2-3 peptide (Homo sapiens, UniProt P11473, DEL165-215); experiment: Identification of reaction partner, pre-incubation FP; assay type: binding; conditions: FP after 5 minutes
T3 construct: made in house
T3 sequence (P11473 with tags, fused parts or gaps DEL165-215 limits assumed): T1 sequence (P11473 with tags, fused parts or gaps DEL165-215 limits assumed)

ECC-1 = experiment: Cytotoxicity, MTS assay; assay type: cell-based; conditions: ECC-1 endometrial cancer cell-line, within 48 hours
CYP24A1 = CYP24A1 expression levels; assay type: cell-based; conditions: compound and calcitriol
VDR-Hr1 = biological target: T4, VDR-Hr1 (Homo sapiens, UniProt P11473, DEL165-215); experiment: VDR-coregulator binding FP, Texas Red-labeled peptide; conditions: 3 h
T4 construct: made in house
T4 sequence (P11473 with tags, fused parts or gaps DEL165-215 limits assumed): T1 sequence (P11473 with tags, fused parts or gaps DEL165-215 limits assumed)

DU145 cells = experiment: Cytotoxicity seen in TRPV6 expression study; assay type: cell-based; conditions: concentrations higher than 20 μM
[7] = PAMPA
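For Papp in this document: passive permeability measured by parallel artificial membrane permeability assay, each experiment run in triplicate.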
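For Permeability Log(Pe) in this document: passive permeability measured by parallel artificial membrane permeability assay, each experiment run in triplicate.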

Papp (in vitro): 0.148 ×10⁻⁶ cm/s
solubility at 12 h (physchem): 503 µM (≈ 195 µg/mL)
SMILES: Cc1[nH]c2ccccc2c1C(Nc1ccccc1)c1ccc(OCCCO)cc1 (stereo not shown) [Compound 30i, 3-(4-((2-methyl-1H-indol-3-yl)(phenylamino)methyl)phenoxy)propan-1-ol]

Solubility [1]: 68.0 µM (≈ 25.9 µg/mL)
Inhibition of VDR-SRC2-1 binding (VDR-SRC2-1): no inhibition
Inhibition of VDR-SRC2 interaction in pull down assay (VDR-SRC2 interaction; 50 μM and 100 μM, residual interaction still detected): significant inhibition
VDR-SRC2 interaction after pre-incubation of SRC2 with compound (VDR-SRC2 interaction; beads washed, then treated with VDR): VDR-SRC2 interactions could be verified
Inhibition of VDR-SRC2 interaction in pull down assay (VDR-SRC2 interaction; different concentrations, with 1,25(OH)2D3): blocked in a dose dependent manner
FP signal after pre-incubation with SRC2-3 for 3 hours, then addition of VDR-LBD and LG190178 (VDR-LBD / SRC2-3 peptide): did not change
FP signal after pre-incubation with VDR-LBD and LG190178 for 3 hours, then addition of SRC2-3 (VDR-LBD / SRC2-3 peptide): did result in a change of FP signal
Inhibition of VDR-Hr1 binding (VDR-Hr1): no inhibition
Permeability Log(Pe) [7]: −6.24 cm/s
SMILES: Cc1[nH]c2ccccc2c1C(Nc1ccc(Cl)cc1)c1ccccc1Cl (stereo not shown) [Compound 31b, 4-chloro-N-((2-chlorophenyl)(2-methyl-1H-indol-3-yl)methyl)aniline]
Expression of VDR (VDR in SKOV-3 cells): downregulation of VDR
Apoptotic (subG1/G0) population (SKOV-3 cells [2]): increase
Population in G1 and G2/M phase (SKOV-3 cells [2]): reduced
S-phase arrest of cycling cells (SKOV-3 cells [2]): restricted the progression of cycling cells in S-phase significantly
TRPV6 transcription in the presence of 1,25-(OH)2D3 (TRPV6 in DU145 cells; 20 nM 1,25-(OH)2D3, different concentrations): reduced in a dose dependent manner
TRPV6 regulation, single treatment (TRPV6 in DU145 cells; 20 μM, without 1,25-(OH)2D3): no regulation of TRPV6
Reactive oxygen species level compared to vehicle (SKOV-3 cells [3]): elevated level of reactive production
Mitochondrial transmembrane depolarization potential (ΔΨm) (SKOV-3 cells [4]): induced activation of mitochondrial transmembrane depolarization potential
Cytotoxicity, cell viability (OVCAR-8): potent cytotoxicity
Activation of caspase-3 (SKOV-3 cells [5]): activation of caspase-3
Cleavage of PARP-1 (SKOV-3 cells [5]): significant cleavage of PARP-1
Activation of SAPK/JNK (SKOV-3 cells [6]): strong/sustained activation of SAPK/JNK
Activation of p38 MAPkinase (SKOV-3 cells [6]): activation of p38 MAPkinase
Cytotoxicity, cell viability (SKOV-3): potent cytotoxicity
Cytotoxicity, cell viability (ECC-1): potent cytotoxicity
CYP24A1 induction with calcitriol, in comparison to calcitriol treatment (CYP24A1): significant increase in CYP24A1 induction
Cytotoxicity in DU145 cells (DU145 cells): increased cytotoxicity
